Laboratory results: patent US8895568B2, “Compositions comprising substituted pteridines as agrochemicals” (Dow AgroSciences LLC, priority 2009, dated 2014)
Where two headings read alike, the source gives them in different places.

Experiments:
Assay type in all cases: in vivo
[1] = system: Pseudoperonospora cubensis; experiment: Cucumber Downy Mildew (PSPECU), foliar spray, percent disease control; details: read-out: PSPECU percent control
Method: The activity of the compounds as effective fungicides was determined by applying the compounds to plants and observing control of fungal disease. The compounds were formulated at 200 ppm in 10 vol. % acetone plus 90 vol. % Triton X water (deionized water 99.99 wt %+0.01 wt % Triton X100), giving a “formulated test compound.” In a few cases, compounds were formulated at 75 or 8.3 ppm rather than 200 ppm in 10 vol. % acetone plus 90 vol. % Triton X water (deionized water 99.99 wt. %+0.01 wt. % Triton X100), giving a “formulated test compound.” Formulated test compounds were applied to plants using a turn table sprayer fitted with two opposing air atomization nozzles which delivered approximately 1500 L/ha of spray volume. All plants were inoculated with spores of the fungus the day after treatment, then incubated in an environment conducive to disease development. Disease severity was evaluated 4 to 15 days later, depending on the disease and the speed of disease development. The following experiments were performed in the laboratory to determine the fungicidal efficacy of the compounds of the invention. Cucumber Downy Mildew (causal agent Pseudoperonospora cubensis; Bayer code […]): Cucumber plants (variety Bush Champion) were grown from seed in a soil-less peat-based potting mixture (Metromix) until the first true leaf was 20-80% expanded. Each pot contained 1 seedling. These plants were sprayed until wet with the formulated test compound. On the following day, the leaves were inoculated with an aqueous suspension of downy mildew sporangia and the plants were kept in high humidity for one day to permit sporangia to germinate and infect the leaf. The plants were then incubated in a growth chamber until disease developed on untreated control plants. […] The effectiveness of the test compounds at controlling disease when sprayed on leaves was determined by assessing the severity of disease on treated plants, then converting the severity to percent control based on the level of disease on untreated, inoculated plants. Data are the level (in percent) at which the given disease was controlled when the given compound was applied to the foliage of the plants at 200 ppm. In a few cases (noted in the table) the compound was applied to the plants at 75 ppm or 8.3 ppm.

Colletotricum lagenarium = experiment: Cucumber Anthracnose (COLLLA), foliar spray, percent disease control
Method: The activity of the compounds as effective fungicides was determined by applying the compounds to plants and observing control of fungal disease. The compounds were formulated at 200 ppm in 10 vol. % acetone plus 90 vol. % Triton X water (deionized water 99.99 wt %+0.01 wt % Triton X100), giving a “formulated test compound.” In a few cases, compounds were formulated at 75 or 8.3 ppm rather than 200 ppm in 10 vol. % acetone plus 90 vol. % Triton X water (deionized water 99.99 wt. %+0.01 wt. % Triton X100), giving a “formulated test compound.” Formulated test compounds were applied to plants using a turn table sprayer fitted with two opposing air atomization nozzles which delivered approximately 1500 L/ha of spray volume. All plants were inoculated with spores of the fungus the day after treatment, then incubated in an environment conducive to disease development. Disease severity was evaluated 4 to 15 days later, depending on the disease and the speed of disease development. The following experiments were performed in the laboratory to determine the fungicidal efficacy of the compounds of the invention. Cucumber Anthracnose (causal agent Colletotricum lagenarium; Bayer code COLLLA): Cucumber plants (variety Bush Champion) were grown from seed in a soil-less peat-based potting mixture (Metromix) until the first true leaf was 20-80% expanded. Each pot contained 1 seedling. These plants were sprayed until wet with the formulated test compound. On the following day, the leaves were inoculated with an aqueous spore suspension of Colletotricum lagenarium and the plants were kept in high humidity for one day to permit spores to germinate and infect the leaf. The plants were then transferred to a growth chamber until disease developed on untreated control plants. […] The effectiveness of the test compounds at controlling disease when sprayed on leaves was determined by assessing the severity of disease on treated plants, then converting the severity to percent control based on the level of disease on untreated, inoculated plants. Data are the level (in percent) at which the given disease was controlled when the given compound was applied to the foliage of the plants at 200 ppm. In a few cases (noted in the table) the compound was applied to the plants at 75 ppm or 8.3 ppm.

Cochliobolus sativus = experiment: Spot Blotch of Wheat (COCHSA), foliar spray, percent disease control; details: Bipolaris sorokiniana, read-out: COCHSA percent control

Compound | pest or weed control at 200 µg/mL ([1]; foliar) | pest or weed control at 200 µg/mL (Colletotricum lagenarium; foliar) | pest or weed control at 200 µg/mL (Cochliobolus sativus; foliar) | pest or weed control at 200 µg/mL ([1]; foliar spray) | pest or weed control at 200 µg/mL (Colletotricum lagenarium; foliar spray) | pest or weed control at 200 µg/mL (Cochliobolus sativus; foliar spray)
CC(C)OC(=O)c1ccnc(Oc2ccc(CCNc3ncnc4nccnc34)cc2)c1 [Compound 173] | 80 to 100% | 0 to 49% | 0 to 49% | – | – | –
O=C(c1ccnc(Oc2ccc(CCNc3ncnc4nccnc34)cc2)c1)C1CC1 [Compound 64] | 80 to 100% | 0 to 49% | 0 to 49% | – | – | –
N#Cc1ccnc(Oc2ccc(OCCNc3ncnc4nccnc34)cc2)c1 [Compound 85] | 80 to 100% | 0 to 49% | 0 to 49% | – | – | –
FC(F)(F)c1ccnc(Oc2ccc(CCNc3ncnc4nccnc34)cc2)n1 [Compound 3] | 80 to 100% | 50 to 79% | 0 to 49% | – | – | –
FC(F)(F)c1cnccc1Oc1cccc(CCNc2ncnc3nccnc23)c1 [Compound 77] | 80 to 100% | 0 to 49% | 0 to 49% | – | – | –
COc1ccc(C(C)Nc2ncnc3nccnc23)cc1 (stereo not drawn) [Compound 17] | 80 to 100% | 50 to 79% | 0 to 49% | – | – | –
FC(F)(F)c1ccc(Oc2ccc(CCNc3ncnc4ncc(Cl)nc34)cc2)nc1 [Compound 124] | 80 to 100% | 0 to 49% | 0 to 49% | – | – | –
FC(F)(F)c1ccnc(Oc2cccc(OCCNc3ncnc4nccnc34)c2)c1 [Compound 86] | 80 to 100% | 0 to 49% | 0 to 49% | – | – | –
Cc1cc(Oc2cc(C(F)(F)F)ccn2)ccc1OCCNc1ncnc2nccnc12 [Compound 201] | – | – | – | 80 to 100% | 0 to 49% | 0 to 49%
COc1cc(C(C)(F)F)cc(Oc2ccc(CCNc3ncnc4nccnc34)cc2)n1 [Compound 191, (2-{4-[4-(1,1-Difluoroethyl)-6-methoxypyridin-2-yloxy]-phenyl}-ethyl)-pteridin-4-yl-amine] | 80 to 100% | 50 to 79% | 0 to 49% | – | – | –
Oc1ccc(CCNc2ncnc3ncc(Cl)nc23)cc1 [Compound 73] | 0 to 49% | 0 to 49% | 0 to 49% | – | – | –
Fc1ccc(-c2ccc(CCNc3ncnc4nccnc34)cc2)cn1 [Compound 121, {2-[4-(6-Fluoropyridin-3-yl)-phenyl]-ethyl}-pteridin-4-yl-amine] | 80 to 100% | 0 to 49% | 0 to 49% | – | – | –
c1ccc(COc2ccc(CCNc3ncnc4nccnc34)cc2)cc1 [Compound 1, [2-(4-Benzyloxyphenyl)-ethyl]-pteridin-4-yl-amine] | 80 to 100% | 80 to 100% | 50 to 79% | – | – | –
COc1cc(CCNc2ncnc3nccnc23)ccc1O [Compound 37] | 0 to 49% | 0 to 49% | 0 to 49% | – | – | –
CC(Nc1ncnc2nccnc12)c1ccc(O)cc1 (stereo not drawn) [Compound 65, 4-[1-(Pteridin-4-ylamino)-ethyl]-phenol] | 50 to 79% | 0 to 49% | 0 to 49% | – | – | –
COc1ccc(CCNc2ncnc3nccnc23)c(F)c1 [Compound 62] | 80 to 100% | 0 to 49% | 0 to 49% | – | – | –
CC(C)(C)COC(=O)c1ccnc(Oc2ccc(CCNc3ncnc4nccnc34)cc2)c1 [Compound 182] | 80 to 100% | 0 to 49% | 0 to 49% | – | – | –
